Where “and” joins values, the source holds several entries; their conditions need not be identical. Identical values can stand only once. {C11P} = undecylphosphate group; {Acr} = acridine conjugate
Key:
[1] = tested on: HSV-1; design: species or system mice; details: mouse, in vivo
[2] = tested on: HSV-1; assay: HSV-1 infectivity of medium of infected BHK cells; type: cell-based, Herpes Simplex Virus 1; details: oligonucleotide 3.0 μM

## Free Anti-HSV: 12-chain oligonucleotide CGTTCCTCCTGU, 5′ undecylphosphate and 3′ acridine modified, complementary to HSV-1 splicing site (5' {C11P}, 3' {Acr}, sugars by position and backbone not given here)
[1]
  % Survival: 7.0%
  Survived animals/Amount of Animals in a group: 1/10 and 0/10
[2]
  HSV-1 infectious titre n = 7: 50(±14) × 10^2 CPE50/ml

Source: patent US6359054B1, “Polynucleotide compositions for intramuscular administration” (priority 1994, dated 2002)
